Drawing on patent US6875760B2 (Novo Nordisk A/S, priority 1999, dated 2005), this text covers IC50 for 31 compounds.

Usually IC50 stands for the midpoint of a concentration-inhibition curve.

Structures are written as SMILES.

T1 sequence (P47871 26-477): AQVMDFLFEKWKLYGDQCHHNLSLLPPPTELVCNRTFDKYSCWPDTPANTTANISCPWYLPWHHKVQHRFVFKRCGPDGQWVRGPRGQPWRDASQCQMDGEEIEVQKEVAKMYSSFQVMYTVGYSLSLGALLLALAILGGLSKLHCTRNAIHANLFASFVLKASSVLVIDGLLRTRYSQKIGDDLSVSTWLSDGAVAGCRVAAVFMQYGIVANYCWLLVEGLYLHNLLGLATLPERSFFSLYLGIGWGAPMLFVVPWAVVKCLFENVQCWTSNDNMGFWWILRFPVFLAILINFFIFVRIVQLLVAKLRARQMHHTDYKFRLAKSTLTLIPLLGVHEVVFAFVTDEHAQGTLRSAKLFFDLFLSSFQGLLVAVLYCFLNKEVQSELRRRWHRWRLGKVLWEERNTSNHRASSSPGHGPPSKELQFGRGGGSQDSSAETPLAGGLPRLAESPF

The first test addresses T1, human glucagon receptor (Homo sapiens, UniProt P47871).
T1 construct: expressed in transfected cells; host or cells: BHK (baby hamster kidney) cells
Nature of the test: Glucagon Binding Assay (III). The note with it: BHK cell membranes, WGA SPA beads, 125I-glucagon; read-out: Glu Bd Assay (III) IC50. Put shortly: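 Membranes from BHK cells transfected with the human receptor, prepared at 4 °C, were used in a WGA-bead scintillation proximity binding format. Plates were shaken for 4 hours, left to settle 8–48 hours and then counted. Non-specific binding was defined with 500 nM glucagon.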
Turning to `CCCCC(CC)CN(Cc1ccc(C(=O)NCCC(=O)O)cc1)C(=O)Nc1ccc(CC)cc1` (stereo not shown) [Example 42, 3-{4-[1-(2-Ethylhexyl)-3-(4-ethylphenyl)ureidomethyl]benzoylamino}propionic acid], the IC50 came to 117 nM.
Still for that read-out and setting: for `COC(=O)c1cc(-c2cccc(NC(=O)N(Cc3ccc(C(=O)NCCC(=O)O)cc3)[C@H]3CC[C@H](C4CCCCC4)CC3)c2)oc1C` [Example 392, 5-(3-{3-(trans-4-Cyclohexylcyclohexyl)-3-[4-(2-carboxyethylcarbamoyl)benzyl]ureido}phenyl)-2-methylfuran-3-carboxylic acid methyl ester] the value was 36 nM; for `CS(=O)(=O)c1ccc(F)c(NC(=O)N(Cc2ccc(C(=O)Nc3nn[nH]n3)cc2)c2ccc(C3CCCCC3)cc2)c1` [Example 260, 4-[1-(4-Cyclohexylphenyl)-3-(2-fluoro-5-methylsulfonylphenyl)ureidomethyl]-N-(2H-tetrazol-5-yl)benzamide], 149 nM.
Still for that read-out and setting: next, `CC(NC(=O)N(Cc1ccc(C(=O)Nc2nn[nH]n2)cc1)c1ccc(C2CCCCC2)cc1)c1ccc(Cl)cc1` (single isomer, unassigned) [Example 337, 4-[3-[1-(4-Chlorophenyl)ethyl]-1-(4-Cyclohexylphenyl)ureidomethyl]-N-(2H-tetrazol-5-yl)benzamide]: 22 nM; `O=C(Nc1nn[nH]n1)c1ccc(CN(C(=O)Nc2ccccc2)c2ccc(C3CCCCC3)cc2)cc1` [Example 279, 4-[1-(4-Cyclohexylphenyl)-3-phenylureidomethyl]-N-(2H-tetrazol-5-yl)benzamide]: 84 nM; `CC(C)(C)c1ccc(N(Cc2ccc(C(=O)NCCC(=O)O)cc2)C(=O)Oc2cc(C(F)(F)F)cc(C(F)(F)F)c2)cc1` [Example 410, 3-(4-{[(3,5-Bis(trifluoromethyl)phenoxycarbonyl)-(4-tert-butylphenyl)amino]methyl}benzoylamino)propionic acid]: 386 nM.
Same read-out and setting: next, `CC(C)(C)C1CCC(N(Cc2ccc(C(=O)Nc3nn[nH]n3)cc2)C(=O)C2=CCc3ccccc32)CC1` (stereo not shown) [Example 474, 3H-Indene-1-carboxylic acid (4-tert-butylcyclohexyl)-[4-(2H-tetrazol-5-ylcarbamoyl)benzyl]amide]: 1260 nM; `CS(=O)(=O)c1cccc(NC(=O)N(Cc2ccc(C(=O)Nc3nn[nH]n3)cc2)c2ccc(C3=CCCCC3)cc2)c1` [Example 310, 4-[1-(4-Cyclohex-1-enylphenyl)-3-(3-methylsulfonylphenyl)ureidomethyl]-N-(2H-tetrazol-5-yl)benzamide]: 61 nM.
In the case of `CC(C)(C)C1CCC(N(Cc2ccc(C(=O)Nc3nn[nH]n3)cc2)C(=O)c2cc3cc(Cl)ccc3o2)CC1` (stereo not shown) [Example 490, 5-Chlorobenzofuran-2-carboxylic acid (4-tert-butylcyclohexyl)-[4-(2H-tetrazol-5-ylcarbamoyl)benzyl]amide], the IC50 was 136 nM.
Same read-out and setting: for `CCCCC(CC)CN(Cc1ccc(C(=O)NCCC(=O)O)cc1)C(=O)Nc1ccc(OC(F)(F)F)cc1` (stereo not shown) [Example 96, 3-{4-[1-(2-Ethylhexyl)-3-(4-trifluoromethoxyphenyl)ureidomethyl]benzoylamino}propionic acid] the value was 137 nM; for `O=C(Nc1nn[nH]n1)c1ccc(CN(C(=O)c2ccc(C3CCCCC3)cc2)c2ccc(C3CCCCC3)cc2)cc1` [Example 484, 4-{[(4-Cyclohexylphenyl)-(4-cyclohexylbenzoyl)amino]methyl}-N-(2H-tetrazol-5-yl)benzamide], 505 nM; for `CC(C)(C)C1CCC(N(Cc2ccc(C(=O)Nc3nn[nH]n3)cc2)C(=O)/C=C/c2cccc3ccccc23)CC1` (stereo not shown) [Example 544], 552 nM.
Same read-out and setting: for `CS(=O)(=O)c1ccc(C(=O)N(Cc2ccc(C(=O)Nc3nn[nH]n3)cc2)c2ccc(C3CCCCC3)cc2)cc1` [Example 483, 4-{[(4-Cyclohexylphenyl)-(4-methylsulfonylbenzoyl)amino]methyl}-N-(2H-tetrazol-5-yl)benzamide] the value was 1120 nM; for `CS(=O)(=O)c1ccc(NC(=O)N(Cc2ccc(C(=O)Nc3nn[nH]n3)cc2)c2ccc(C3CCCCC3)cc2)s1` [Example 320, 4-[1-(4-Cyclohexylphenyl)-3-(5-methylsulfonylthiophen-2-yl)ureidomethyl]-N-(2H-tetrazol-5-yl)benzamide], 28 nM; for `CCC(C)c1ccc(N(Cc2ccc(C(=O)Nc3nn[nH]n3)cc2)C(=O)Nc2cc(C(=O)OC)cc(C(=O)OC)c2)cc1` (stereo not shown) [Example 290], 101 nM.
For `CCCCOC(=O)c1ccc(NC(=O)N(Cc2ccc(C(=O)NCCC(=O)O)cc2)C2CCC(C(C)C)CC2)cc1` (stereo not shown) [Example 84, 4-[3-[4-(2-Carboxyethylcarbamoyl)benzyl]-3-(4-isopropylcyclohexyl)ureido]benzoic acid butyl ester], the IC50 turned out to be 261 nM.
Still for that read-out and setting: for `CC(Oc1ccc(Cl)cc1)C(=O)N(Cc1ccc(C(=O)Nc2nn[nH]n2)cc1)C1CCC(C(C)(C)C)CC1` (stereo not shown) [Example 542, 4-({(4-tert-Butylcyclohexyl)-[2-(4-chlorophenoxy)propionyl]amino}methyl)-N-(2H-tetrazol-5-yl)benzamide] the value was 304 nM; for `CC1CCC(N(Cc2ccc(C(=O)NCCC(=O)O)cc2)C(=O)Nc2ccc(OC(F)(F)F)cc2)CC1` (stereo not shown) [Example 15, 3-{4-[1-(4-Methylcyclohexyl)-3-(4-trifluoromethoxyphenyl)ureidomethyl]benzoylamino}propionic acid], 826 nM; for `CC(Oc1ccc(OC(F)(F)F)cc1)C(=O)N(Cc1ccc(C(=O)Nc2nn[nH]n2)cc1)CC(c1ccccc1)c1ccccc1` (stereo not shown) [Example 530, 4-({(2,2-Diphenylethyl)-[2-(4-trifluoromethoxyphenoxy)propionyl]amino}methyl)-N-(2H-tetrazol-5-yl)benzamide], 3980 nM.
On the same count and under the same terms, next, `Cc1cc(NC(=O)N(Cc2ccc(C(=O)Nc3nn[nH]n3)cc2)c2ccc(C3=CCCCC3)cc2)cc(C(F)(F)F)c1` [Example 362, 4-[1-(4-Cyclohex-1-enylphenyl)-3-(3-methyl-5-trifluoromethylphenyl)ureidomethyl]-N-(2H-tetrazol-5-yl)benzamide]: 13 nM; `CC(Oc1cccc(Cl)c1)C(=O)N(Cc1ccc(C(=O)Nc2nn[nH]n2)cc1)C1CCC(C(C)(C)C)CC1` (stereo not shown) [Example 548, 4-({(4-tert-Butylcyclohexyl)-[2-(3-chlorophenoxy)propionyl]amino}methyl)-N-(2H-tetrazol-5-yl)benzamide]: 309 nM; `CCC[C@H]1CC[C@H](N(Cc2ccc(C(=O)NCCC(=O)O)cc2)C(=O)Nc2ccc(OC(F)(F)F)cc2)CC1` [Example 76, 3-{4-[1-(4-trans-Propylcyclohexyl)-3-(4-trifluoromethoxyphenyl)ureidomethyl]benzoylamino}propionic acid]: 135 nM.
Still for that read-out and setting: next, `O=C(Nc1nn[nH]n1)c1ccc(CN(C(=O)Nc2ccc(OC(F)(F)F)c(-c3nc4ccccc4o3)c2)c2ccc(C3CCCCC3)cc2)cc1` [Example 360, 4-[3-(3-Benzoxazol-2-yl-4-trifluoromethoxyphenyl)-1-(4-cyclohexylphenyl)ureidomethyl]-N-(2H-tetrazol-5-yl)benzamide]: 8 nM.
For the compound `O=C(O)CCNC(=O)c1ccc(CN(C(=O)Nc2ccc(OC(F)(F)F)cc2)C2CCC(=C3CC3)CC2)cc1` (stereo not shown) [Example 248, 3-{4-[1-(4-Cyclopropylidenecyclohexyl)-3-(4-trifluoromethoxyphenyl)ureidomethyl]benzoylamino}propionic acid], the IC50 turned out to be 571 nM.
Still for that read-out and setting: for `CC(C)Cc1ccc(C(=O)N(Cc2ccc(C(=O)Nc3nn[nH]n3)cc2)c2ccc(N3CCCCC3)cc2)cc1` [Example 518, 4-{[(4-Isobutylbenzoyl)-(4-piperidin-1-ylphenyl)amino]methyl}-N-(2H-tetrazol-5-yl)benzamide] the value was 1470 nM; for `CCC1CCC(N(Cc2ccc(C(=O)NCCC(=O)O)cc2)C(=O)Nc2ccc(OC(F)(F)F)cc2)CC1` (stereo not shown) [Example 83, 3-{4-[1-(4-Ethylcyclohexyl)-3-(4-trifluoromethoxyphenyl)ureidomethyl]benzoylamino}propionic acid], 203 nM; for `O=C(O)CCNC(=O)c1ccc(CN(Cc2cc(Cl)cc(Cl)c2)NC(=O)c2ccc(OC(F)(F)F)cc2)cc1` [Example 422, 3-{4-[N-(3,5-Dichlorobenzyl)-N′-(4-trifluoromethoxybenzoyl)hydrazinomethyl]benzoylamino}propionic acid], 536 nM.
Still for that read-out and setting: next, `O=C(Nc1nn[nH]n1)c1ccc(CN(C(=O)Nc2cc(Cl)cc(Cl)c2)c2ccc(C3CCCCC3)cc2)cc1` [Example 304, 4-[1-(4-Cyclohexylphenyl)-3-(3,5-dichlorophenyl)ureidomethyl]-N-(2H-tetrazol-5-yl)benzamide]: 45 nM.
As to `O=C(O)CCNC(=O)c1ccc(CN(C(=O)Nc2ccc(OC(F)(F)F)cc2)C2CCC3(CC2)OCCO3)cc1` [Example 89, 3-{4-[1-(1,4-Dioxaspiro[4.5]dec-8-yl)-3-(4-trifluoromethoxyphenyl)ureidomethyl]benzoylamino}propionic acid], the IC50 was determined as 1210 nM.
In the case of `C[S+]([O-])c1cccc(NC(=O)N(Cc2ccc(C(=O)Nc3nn[nH]n3)cc2)c2ccc(C3CCCCC3)cc2)c1` (stereo not shown) [Example 472, 4-[1-(4-Cyclohexylphenyl)-3-(3-methylsulfinylphenyl)ureidomethyl]-N-(2H-tetrazol-5-yl)benzamide], the IC50 was determined as 255 nM.

The test is the same for the next values; noted with them: Glu Bd Assay (III) IC50 (nM), BHK cell membranes, WGA SPA beads, 125I-glucagon.
`CC(C)(C)[C@H]1CC[C@H](N(Cc2ccc(C(=O)NCCC(=O)O)cc2)C(=O)Nc2ccc(C#N)cc2OC(F)(F)F)CC1` [Example 247, 3-{4-[1-(trans-4-tert-Butylcyclohexyl)-3-(4-cyano-2-trifluoromethoxyphenyl)ureidomethyl]benzoylamino}propionic acid] displayed an IC50 of 215 nM.
